Experimental data reported in patent US10370372B2, “Fused pyrimidine compound or salt thereof” (TAIHO PHARMACEUTICAL CO., LTD., priority 2015, dated 2019).
pIC50: −log10 of the molar value. Like-named read-outs stand apart in the source and are kept apart here.

Key:
Type in all cases: cell-based
[1] = tested on: Human prostate cancer cells LNCaP; test: Inhibitory activity on androgen-dependent proliferation of prostate cancer cells; settings: 1 nmol/L DHT, 72 hours, Cell Counting Kit-8, read-out: Proliferation inhibition concentration GI50 value
Experimental: Human prostate cancer cells LNCaP (Non-Patent Literature 5) having […] androgen receptor gene were seeded in a clear bottom 96 well microplate (BD) at 4.0×10^3/well with phenol red free RPMI1640 containing 5% DCC-FBS (hereinbelow, the medium is referred to as an evaluation medium), and then cultured overnight. […] Then, the number of viable cells was measured. The number of viable cells was measured by using Cell Counting Kit-8 (DOJINDO LABORATORIES).

[2] = tested on: AR positive human prostate cancer cells VCaP; test: Agonist activity for AR: cell proliferation rate of VCaP cells; settings: 5-10000 nmol/L, 72 hours, relative to evaluation medium only, more than 10% = agonist activity
Experimental: Then, the number of viable cells was measured (test group). As a control, the cells were cultured after being added with the evaluation medium only, and the number of viable cells was measured (control group). The number of viable cells was measured by using CellTiter-Glo™ Luminescent Cell Viability Assay (Promega). From the measured number of viable cells, cell proliferation rate with respect to the compound of Examples or the compound of Comparative Examples was calculated based on the number of viable cells measured in the case of using the evaluation medium only. Cell proliferation rate (%)=(Number of viable cells in test group−Number of viable cells in control group)/(Number of viable cells in control group)×100
By considering an error in the number of viable cells measured in the case of using the evaluation medium only, when the cell proliferation rate was more than 10% at any concentration of the 8 concentrations which had been evaluated, it was determined to have an agonist activity for AR.

[3] = tested on: AR expression in LNCaP; test: Activity of reducing expression level of androgen receptor (Western blotting in LNCaP); settings: Homo sapiens, read-out: AR expression reducing activity
Experimental: AR positive human prostate cancer cells LNCaP were seeded in a 6 well microplate (BD) at 3.5×10^5/well with RPMI1640 containing 5% FBS (hereinbelow, the medium is referred to as an evaluation medium), and then cultured overnight. […] After culture for 48 hours, the medium was removed and the cells were washed with PBS and added with 0.1 mL of Lysis buffer (M-PER added with Protease Inhibitor Cocktail), followed by keeping at 4° C. for 20 minutes. After cell lysis, the cell solution was centrifuged to recover the supernatant as cell lysate. […] The antibody-reacting band (anti AR receptor) was quantified by LAS Imaging System (FUJIFILM) using Super Signal West Dura Substrate (Thermo Scientific) as a detection reagent.
When the AR expression reducing activity is 50% or more, it is described as “reduced”.

[4] = target: T1, human androgen receptor (Homo sapiens, UniProt P10275); test: Antagonist activity for AR: MMTV-luc reporter transcription in COS-7 cells transfected with human AR, stimulated with DHT
T1 construct: expressed in transfected cells; host or cells: COS-7 cells (ATCC)
T1 sequence (P10275 1-920): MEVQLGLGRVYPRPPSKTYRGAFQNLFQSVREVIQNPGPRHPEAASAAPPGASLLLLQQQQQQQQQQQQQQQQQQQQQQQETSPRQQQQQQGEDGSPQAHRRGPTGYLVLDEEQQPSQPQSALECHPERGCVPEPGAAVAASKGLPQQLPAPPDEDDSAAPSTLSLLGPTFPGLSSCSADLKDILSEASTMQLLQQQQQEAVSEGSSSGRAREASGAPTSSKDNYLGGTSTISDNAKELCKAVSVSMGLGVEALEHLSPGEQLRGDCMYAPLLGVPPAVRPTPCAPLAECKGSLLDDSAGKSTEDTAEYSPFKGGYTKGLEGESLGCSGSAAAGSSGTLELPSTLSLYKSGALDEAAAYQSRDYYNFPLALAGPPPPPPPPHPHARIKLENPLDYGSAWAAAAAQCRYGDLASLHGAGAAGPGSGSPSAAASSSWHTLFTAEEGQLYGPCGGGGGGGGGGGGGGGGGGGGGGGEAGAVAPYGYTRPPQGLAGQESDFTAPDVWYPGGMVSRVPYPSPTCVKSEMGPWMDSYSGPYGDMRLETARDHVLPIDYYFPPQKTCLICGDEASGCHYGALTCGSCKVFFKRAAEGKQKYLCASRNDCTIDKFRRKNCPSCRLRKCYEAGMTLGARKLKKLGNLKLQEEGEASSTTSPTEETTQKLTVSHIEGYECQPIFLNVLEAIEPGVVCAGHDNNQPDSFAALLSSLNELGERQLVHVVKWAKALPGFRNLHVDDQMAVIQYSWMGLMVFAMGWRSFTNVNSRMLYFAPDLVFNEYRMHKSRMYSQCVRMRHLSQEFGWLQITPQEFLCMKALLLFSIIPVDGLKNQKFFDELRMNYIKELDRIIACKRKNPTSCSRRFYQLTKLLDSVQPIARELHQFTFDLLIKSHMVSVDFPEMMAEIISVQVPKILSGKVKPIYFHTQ
Experimental: Antagonist activity for AR was evaluated according to the following method. COS-7 cells (ATCC) were transfected with pMMTV-luc vector (reporter plasmid having, as an androgen response element, […] long terminal repeat) and pEX-hAR vector (human androgen receptor expression vector: which expresses human AR gene under control of CMV promoter) by using Nucleofector (registered trademark) Kit R (Lonza) as a transfection reagent and Amaxa (Lonza). The COS-7 cells obtained after transfection were seeded in a clear bottom 96 well microplate (BD) at 1.5×10^4/well with phenol red free RPMI1640 containing 10% charcoal-treated fetal bovine serum (hereinbelow, DCC-FBS) (hereinbelow, the medium is referred to as an evaluation medium), and then cultured overnight. […] Then, the transcription activity value of the reporter plasmid was measured. The transcription activity was measured by using Bright-Glo™ Luciferase Assay System (Promega).

[5] = COS-7 cells with pMMTV-luc and pEX-hAR, 1 nmol/L DHT, 24 hours, read-out: AR antagonist IC50

Structure (SMILES): CC(O)(CS(=O)(=O)c1ccc(F)cc1)C(=O)Nc1ccc(C#N)c(C(F)(F)F)c1 (stereo not shown) [Bicalutamide, reference compound]
- GI50 [1]: 2300 nM
- Cell proliferation rate (%) [2]: 36%
- inhibition at 10 µM ([3]; 48 h): < 10%

Structure (SMILES): CCNC(=O)c1ccc(Nc2ncnc3c2CCN(c2ccc(C#N)c(Cl)c2)C3)nc1F [Example 1, 6-((7-(3-Chloro-4-cyanophenyl)-5,6,7,8-tetrahydropyrido[3,4-d]pyrimidin-4-yl)amino)-N-ethyl-2-fluoronicotinamide]
- pIC50 [4]: 8.59
- GI50 [1]: 83 nM
- Cell proliferation rate (%) [2]: 9.7%
- inhibition at 10 µM ([3]; 48 h): > 50%

Structure (SMILES): CNC(=O)c1ccc(Nc2ncnc3c2CCN(c2ccc(C#N)c(Cl)c2)C3)nc1F [Example 2, 6-((7-(3-chloro-4-cyanophenyl)-5,6,7,8-tetrahydropyrido[3,4-d]pyrimidin-4-yl)amino)-2-fluoro-N-methylnicotinamide]
- pIC50 [4]: 7.48
- GI50 [1]: 290 nM
- inhibition at 10 µM ([3]; 48 h): > 50%

Structure (SMILES): CNC(=O)c1ccc(Nc2ncnc3c2CCN(c2ccc(C#N)c(C(F)(F)F)c2)C3)nc1F [Example 3, 6-((7-(4-cyano-3-(trifluoromethyl)phenyl)-5,6,7,8-tetrahydropyrido[3,4-d]pyrimidin-4-yl)amino)-2-fluoro-N-methylnicotinamide]
- pIC50 [4]: 7.51
- GI50 [1]: 360 nM
- Cell proliferation rate (%) [2]: 8.9%
- inhibition at 10 µM ([3]; 48 h): > 50%

Structure (SMILES): CCNC(=O)c1ccc(Nc2ncnc3c2CCN(c2ccc(C#N)c(C(F)(F)F)c2)C3)nc1F [Example 4, 6-((7-(4-cyano-3-(trifluoromethyl)phenyl)-5,6,7,8-tetrahydropyrido[3,4-d]pyrimidin-4-yl)amino)-N-ethyl-2-fluoronicotinamide]
- pIC50 [4]: 7.35
- GI50 [1]: 1100 nM
- Cell proliferation rate (%) [2]: 9.7%
- inhibition at 10 µM ([3]; 48 h): > 50%

Structure (SMILES): CCNC(=O)c1ccc(Nc2ncnc3c2CCN(c2ccc(C#N)c(C(F)(F)F)c2)C3)nc1 [Example 5, 6-((7-(4-cyano-3-(trifluoromethyl)phenyl)-5,6,7,8-tetrahydropyrido[3,4-d]pyrimidin-4-yl)amino)-N-ethylnicotinamide]
- pIC50 [4]: 7.00
- GI50 [1]: 120 nM
- Cell proliferation rate (%) [2]: −1.9%
- inhibition at 10 µM ([3]; 48 h): > 50%

Structure (SMILES): N#Cc1ccc(N2CCc3c(ncnc3Nc3ccc(C(=O)N4CCCCCC4)cn3)C2)cc1C(F)(F)F [Example 6, 4-(4-((5-(azepane-1-carbonyl)pyridin-2-yl)amino)-5,6-dihydropyrido[3,4-d]pyrimidin-7(8H)-yl)-2-(trifluoromethyl)benzonitrile]
- pIC50 [4]: 6.89
- GI50 [1]: 55 nM
- Cell proliferation rate (%) [2]: −1.0%
- inhibition at 10 µM ([3]; 48 h): > 50%

Structure (SMILES): CC(C)(C)ONC(=O)c1ccc(Nc2ncnc3c2CCN(c2ccc(C#N)c(C(F)(F)F)c2)C3)nc1 [Example 7, N-(tert-butoxy)-6-((7-(4-cyano-3-(trifluoromethyl)phenyl)-5,6,7,8-tetrahydropyrido[3,4-d]pyrimidin-4-yl)amino)nicotinamide]
- pIC50 [4, 5]: 6.42
- GI50 [1]: 180 nM
- Cell proliferation rate (%) [2]: 0.90%
- inhibition at 10 µM ([3]; 48 h): > 50%

Structure (SMILES): CC(C)(C)OC(=O)NCCNC(=O)c1ccc(Nc2ncnc3c2CCN(c2ccc(C#N)c(C(F)(F)F)c2)C3)nn1 [Example 8, tert-butyl (2-(6-((7-(4-cyano-3-(trifluoromethyl)phenyl)-5,6,7,8-tetrahydropyrido[3,4-d]pyrimidin-4-yl)amino)pyridazine-3-carboxamido)ethyl)carbamate]
- pIC50 [4]: 7.23
- GI50 [1]: 1100 nM
- Cell proliferation rate (%) [2]: 5.3%
- inhibition at 10 µM ([3]; 48 h): > 50%

Structure (SMILES): N#Cc1ccc(N2CCc3c(ncnc3Nc3ccc(C(=O)NC4CC4)nn3)C2)cc1C(F)(F)F [Example 9, 6-((7-(4-cyano-3-(trifluoromethyl)phenyl)-5,6,7,8-tetrahydropyrido[3,4-d]pyrimidin-4-yl)amino)-N-cyclopropylpyridazine-3-carboxamide]
- pIC50 [4]: 7.52
- GI50 [1]: 510 nM
- Cell proliferation rate (%) [2]: −3.0%
- inhibition at 10 µM ([3]; 48 h): > 50%

Structure (SMILES): CCNC(=O)c1ccc(Nc2ncnc3c2CCN(c2ccc(C#N)c(C(F)(F)F)c2)C3)nn1 [Example 10, 6-((7-(4-cyano-3-(trifluoromethyl)phenyl)-5,6,7,8-tetrahydropyrido[3,4-d]pyrimidin-4-yl)amino)-N-ethylpyridazine-3-carboxamide]
- pIC50 [4]: 8.15
- GI50 [1]: 400 nM
- inhibition at 10 µM ([3]; 48 h): > 50%

Structure (SMILES): COc1cc(N2CCc3c(ncnc3Nc3ccc(C(C)(C)O)cn3)C2)ccc1[N+](=O)[O-] [Example 15, 2-(6-((7-(3-methoxy-4-nitrophenyl)-5,6,7,8-tetrahydropyrido[3,4-d]pyrimidin-4-yl)amino)pyridin-3-yl)propan-2-ol]
- pIC50 [4, 5]: 6.59
- GI50 [1]: 3000 nM
- Cell proliferation rate (%) [2]: 7.7%

Structure (SMILES): CC(C)(O)c1ccc(Nc2ncnc3c2CCN(c2ccc([N+](=O)[O-])c(Cl)c2F)C3)nc1 [Example 18, 2-(6-((7-(3-chloro-2-fluoro-4-nitrophenyl)-5,6,7,8-tetrahydropyrido[3,4-d]pyrimidin-4-yl)amino)pyridin-3-yl)propan-2-ol]
- pIC50 [4, 5]: 6.00
- Cell proliferation rate (%) [2]: 9.5%

Structure (SMILES): Cc1cc(N2CCc3c(ncnc3Nc3ccc(C(C)(C)O)cn3)C2)ccc1C#N [Example 20, 4-(4-((5-(2-hydroxypropan-2-yl)pyridin-2-yl)amino)-5,6-dihydropyrido[3,4-d]pyrimidin-7(8H)-yl)-2-methylbenzonitrile]
- pIC50 [4, 5]: 6.32
- Cell proliferation rate (%) [2]: −0.89%
- inhibition at 10 µM ([3]; 10000 nmol/L, 48 hours, vs evaluation medium control): > 50%

Structure (SMILES): N#Cc1ccc(N2CCc3c(ncnc3Nc3ccc(C4(O)COC4)c(F)n3)C2)cc1Cl [Example 35, 2-Chloro-4-(4-((6-fluoro-5-(3-hydroxyoxetan-3-yl)pyridin-2-yl)amino)-5,6-dihydropyrido[3,4-d]pyrimidin-7(8H)-yl)benzonitrile]
- pIC50 [4, 5]: 6.92
- Cell proliferation rate (%) [2]: 9.4%
- inhibition at 10 µM ([3]; 48 h): > 50%

Structure (SMILES): N#Cc1ccc(N2CCc3c(ncnc3Nc3ccc(OCCCN4CCNCC4)c(C(F)(F)F)c3)C2)cc1Cl [Example 38, 2-chloro-4-(4-((4-(3-(piperazin-1-yl)propoxy)-3-(trifluoromethyl)phenyl)amino)-5,6-dihydropyrido[3,4-d]pyrimidin-7(8H)-yl)benzonitrile]
- pIC50 [4]: 6.02
- GI50 [1]: 120 nM
- Cell proliferation rate (%) [2]: −1.3%
